US20230278972A1, “SUBSTITUTED HALOALKYL SULFONANILIDE HERBICIDES” (FMC Corporation, priority 2020, published 2023)

Tests used:
Type in all cases: in vivo
[1] = tested on: wheat (Triticum aestivum); test: Test A postemergence, wheat; settings: Postemergence, 0 to 100 scale (0 no effect, 100 complete control); for Plant response rating, Wheat: 125 g ai/ha; for Wheat plant response rating: 500 g ai/ha, visual injury vs untreated controls after approx. 10 days
In short: (§1)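 Greenhouse pot test in a loam–sand blend; compounds delivered in a non-phytotoxic solvent carrying a surfactant, applied either as a directed spray to soil at seeding or over seedlings 2 to 10 cm high with one to two leaves.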

[2] = tested on: Ryegrass, Italian (Italian ryegrass, Lolium multiflorum); test: Test A preemergence, Ryegrass, Italian; settings: Preemergence; for Plant response rating, Ryegrass, Italian: 0 to 100 scale (0 no effect, 100 complete control)
In short: (§2)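 Formulated with a surfactant in a non-phytotoxic solvent, compounds are applied to loam–sand pots, either to bare soil immediately after seeding (preemergence) or to seedlings of 2 to 10 cm bearing one to two leaves (postemergence).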

kochia (Bassia scoparia) [3] = test: Test A postemergence, kochia; settings: Postemergence, 0 to 100 scale (0 no effect, 100 complete control); for Plant response rating, Kochia: 125 g ai/ha; for Kochia plant response rating: 500 g ai/ha, visual injury vs untreated controls after approx. 10 days
In short: as §2

kochia (Bassia scoparia) [4] = test: Test A preemergence, kochia; settings: Preemergence; for Plant response rating, Kochia: 0 to 100 scale (0 no effect, 100 complete control)
In short: as §2

[5] = tested on: pigweed (Amaranthus retroflexus); test: Test A postemergence, pigweed; settings: Postemergence, 0 to 100 scale (0 no effect, 100 complete control); for Plant response rating, Pigweed: 125 g ai/ha; for Pigweed plant response rating: 500 g ai/ha, visual injury vs untreated controls after approx. 10 days
In short: as §2

[6] = tested on: pigweed (Amaranthus retroflexus); test: Test A preemergence, pigweed; settings: for Plant response rating, Pigweed: 0 to 100 scale (0 no effect, 100 complete control)
Source text: Seeds of plant species selected from barnyardgrass (Echinochloa crus-galli), kochia (Bassia scoparia), ragweed (common ragweed, Ambrosia artemisiifolia), Ryegrass, Italian (Italian ryegrass, Lolium multiflorum), Foxtail, Giant (giant foxtail, Setaria faberi), and pigweed (Amaranthus retroflexus) were planted into a blend of loam soil and sand and treated preemergence with a directed soil spray using test chemicals formulated in a non-phytotoxic solvent mixture which included a surfactant. At the same time, plants selected from these weed species and also wheat (Triticum aestivum), corn (Zea mays), blackgrass (Alopecurus myosuroides), and galium (catchweed bedstraw, Galium aparine) were planted in pots containing the same blend of loam soil and sand and treated with postemergence applications of test chemicals formulated in the same manner. Plants ranged in height from 2 to 10 cm and were in the one- to two-leaf stage for the postemergence treatment. […] A dash (-) response means no test result.

[7] = tested on: Foxtail, Giant (giant foxtail, Setaria faberi); test: Test A postemergence, Foxtail, Giant; settings: Postemergence, 0 to 100 scale (0 no effect, 100 complete control); for Plant response rating, Foxtail, Giant: 125 g ai/ha; for Foxtail, Giant plant response rating: 500 g ai/ha, visual injury vs untreated controls after approx. 10 days
In short: as §2

[8] = tested on: blackgrass (Alopecurus myosuroides); test: Test A postemergence, blackgrass; settings: Postemergence, 0 to 100 scale (0 no effect, 100 complete control); for Plant response rating, Blackgrass: 125 g ai/ha; for Blackgrass plant response rating: 500 g ai/ha, visual injury vs untreated controls after approx. 10 days
In short: as §2

corn (Zea mays) = test: Test A postemergence, corn; settings: Postemergence, 0 to 100 scale (0 no effect, 100 complete control); for Plant response rating, Corn: 125 g ai/ha; for Corn plant response rating: 500 g ai/ha, visual injury vs untreated controls after approx. 10 days
In short: as §2

[9] = tested on: Foxtail, Giant (giant foxtail, Setaria faberi); test: Test A preemergence, Foxtail, Giant; settings: Preemergence; for Plant response rating, Foxtail, Giant: 0 to 100 scale (0 no effect, 100 complete control)
In short: as §2

[10] = tested on: barnyardgrass (Echinochloa crus-galli); test: Test A preemergence, barnyardgrass; settings: Preemergence; for Plant response rating, Barnyardgrass: 0 to 100 scale (0 no effect, 100 complete control)
In short: as §2

[11] = tested on: galium (catchweed bedstraw, Galium aparine); test: Test A postemergence, galium; settings: Postemergence, 0 to 100 scale (0 no effect, 100 complete control); for Plant response rating, Galium: 125 g ai/ha; for Galium plant response rating: 500 g ai/ha, visual injury vs untreated controls after approx. 10 days
In short: as §1

[12] = tested on: ragweed (common ragweed, Ambrosia artemisiifolia); test: Test A preemergence, ragweed; settings: Preemergence; for Plant response rating, Ragweed: 0 to 100 scale (0 no effect, 100 complete control)
In short: as §2

[13] = tested on: ragweed (common ragweed, Ambrosia artemisiifolia); test: Test A postemergence, ragweed; settings: Postemergence, 0 to 100 scale (0 no effect, 100 complete control); for Plant response rating, Ragweed: 125 g ai/ha; for Ragweed plant response rating: 500 g ai/ha, visual injury vs untreated controls after approx. 10 days
In short: as §2

[14] = tested on: Ryegrass, Italian (Italian ryegrass, Lolium multiflorum); test: Test A postemergence, Ryegrass, Italian; settings: Postemergence, 0 to 100 scale (0 no effect, 100 complete control); for Plant response rating, Ryegrass, Italian: 125 g ai/ha; for Ryegrass, Italian plant response rating: 500 g ai/ha, visual injury vs untreated controls after approx. 10 days
In short: as §2

[15] = 125 g ai/ha, visual injury, approx. 10 days
[16] = 125 g ai/ha, visual injury on 0 to 100 scale (0 no effect, 100 complete control), approximately 10 days

SMILES	Plant response rating, Wheat [1]	Wheat plant response rating [1]	Plant response rating, Ryegrass, Italian [2, 15]	Plant response rating, Ryegrass, Italian ([2]; 500 g ai/ha)	Plant response rating, Kochia (kochia (Bassia scoparia) [3])	Kochia plant response rating (kochia (Bassia scoparia) [3])	Plant response rating, Kochia (kochia (Bassia scoparia) [4]; [15])	Plant response rating, Kochia (kochia (Bassia scoparia) [4]; 500 g ai/ha)	Plant response rating, Pigweed [5]	Pigweed plant response rating [5]	Plant response rating, Pigweed ([6]; 500 g ai/ha)	Foxtail, Giant plant response rating [7]	Blackgrass plant response rating [8]	Corn plant response rating (corn (Zea mays))	Plant response rating, Foxtail, Giant ([9]; 500 g ai/ha)	Plant response rating, Barnyardgrass ([10]; 500 g ai/ha)	Galium plant response rating [11]	Plant response rating, Ragweed ([12]; 500 g ai/ha)	Ragweed plant response rating [13]	Ryegrass, Italian plant response rating [14]	other results
Cc1cc(C)c(N(S(=O)(=O)C(F)(F)F)S(=O)(=O)C(F)(F)F)cc1C1=NOC2(CCC2)C1 [Compound 196]	0	0	20	70	10	20	70	80	30	50	100	0	0	0	100	90	80	0	30	30	Plant response rating, Pigweed [6, 15]: 50; Plant response rating, Foxtail, Giant [7]: 0; Plant response rating, Blackgrass [8]: 0; Plant response rating, Corn (corn (Zea mays)): 0; Plant response rating, Foxtail, Giant [9, 15]: 30; Plant response rating, Barnyardgrass [10, 15]: 0; Plant response rating, Galium [11]: 60; Plant response rating, Ragweed [12, 15]: 0; Plant response rating, Ragweed [13]: 0; Plant response rating, Ryegrass, Italian [14]: 0
Cc1cc(-c2cc(N(S(=O)(=O)C(F)(F)F)S(=O)(=O)C(F)(F)F)c(C)cc2C)c(=O)n(C)n1 [Compound 75]	–	70	–	100	–	80	–	100	–	80	100	90	70	0	100	100	90	80	50	60	Plant response rating, Wheat ([1]; visual injury approx. 10 days): 40; Ryegrass, Italian plant response rating [2, 16]: 80; Plant response rating, Kochia (kochia (Bassia scoparia) [3]; visual injury approx. 10 days): 20; Kochia plant response rating (kochia (Bassia scoparia) [4]; [16]): 80; Plant response rating, Pigweed ([5]; visual injury approx. 10 days): 40; Pigweed plant response rating [6, 16]: 80; Plant response rating, Foxtail, Giant ([7]; visual injury approx. 10 days): 30; Plant response rating, Blackgrass ([8]; visual injury approx. 10 days): 30; Plant response rating, Corn (corn (Zea mays); visual injury approx. 10 days): 0; Foxtail, Giant plant response rating [9, 16]: 100; Barnyardgrass plant response rating [10, 16]: 90; Plant response rating, Galium ([11]; visual injury approx. 10 days): 70; Ragweed plant response rating [12, 16]: 20; Plant response rating, Ragweed ([13]; visual injury approx. 10 days): 0; Plant response rating, Ryegrass, Italian ([14]; visual injury approx. 10 days): 20
Cc1cc(C)c(N(S(=O)(=O)C(F)(F)F)S(=O)(=O)C(F)(F)F)cc1C1=NOC2(CCCCC2)C1 [Compound 198]	20	40	60	90	20	60	60	80	50	70	100	30	0	20	100	100	90	80	80	40	Plant response rating, Pigweed [6, 15]: 70; Plant response rating, Foxtail, Giant [7]: 0; Plant response rating, Blackgrass [8]: 10; Plant response rating, Corn (corn (Zea mays)): 20; Plant response rating, Foxtail, Giant [9, 15]: 100; Plant response rating, Barnyardgrass [10, 15]: 80; Plant response rating, Galium [11]: 70; Plant response rating, Ragweed [12, 15]: 70; Plant response rating, Ragweed [13]: 20; Plant response rating, Ryegrass, Italian [14]: 30
